Data reported in paper PMC8670039, “Flavonoids kaempferol and quercetin are nuclear receptor 4A1 (NR4A1, Nur77) ligands and inhibit rhabdomyosarcoma cell and tumor growth” (Journal of Experimental & Clinical Cancer Research : CR, 2021).

Molecular target: nuclear receptor 4A1 (NR4A1, Nur77) (Homo sapiens, UniProt P22736)
Experiment: Trp fluorescence quenching direct binding; also bis-ANS competitive displacement (Ki […])

nuclear receptor 4A1 (NR4A1, Nur77), sequence (P22736 351-598 limits assumed): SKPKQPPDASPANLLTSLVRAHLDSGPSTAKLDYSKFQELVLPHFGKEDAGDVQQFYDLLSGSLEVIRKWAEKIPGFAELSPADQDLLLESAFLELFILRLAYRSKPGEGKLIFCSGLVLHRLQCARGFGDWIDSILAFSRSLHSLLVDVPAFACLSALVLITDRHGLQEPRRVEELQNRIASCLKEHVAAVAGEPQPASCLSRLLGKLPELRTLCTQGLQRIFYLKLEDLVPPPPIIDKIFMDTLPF

O=c1c(O)c(-c2ccc(O)c(O)c2)oc2cc(O)cc(O)c12 [Q, quercetin]
Kd: 930 nM
